How the values were obtained:
[1] = target: PCAF (Homo sapiens, UniProt Q92831); assay: Other acetyltransferase assay; format: biochemical; details: up to 100 μM
[2] = Dose-finding tolerability, single i.p. injection; details: mice
[3] = test system: H4K12Ac in A549 tumors; assay: H4K12Ac immunofluorescence in A549 tumors after single i.p. dose; details: tumors harvested 24 hours later
[4] = target: GCN5 (Homo sapiens, UniProt Q92830); assay: Other acetyltransferase assay; format: biochemical; details: up to 100 μM
[5] = mouse, in vivo, ip
[6] = test system: FAD-dependent oxidase; assay: FAD oxidase reaction; format: biochemical; details: 0.01 μM FAD
[7] = target: KAT5 (Homo sapiens, UniProt Q92993); assay: Other acetyltransferase assay; format: biochemical; details: up to 100 μM
[8] = target: MYST4/KAT6b (Homo sapiens, UniProt Q8WYB5); assay: Other acetyltransferase assay; format: biochemical; details: up to 100 μM
[9] = Plasma pharmacokinetics after single i.p. injection; details: female, CD1, mouse, intraperitoneal, 100 mg/kg
[10] = test system: A549 tumors; assay: A549 xenograft tumor growth; details: 50 mg/kg and 100 mg/kg i.p. once every three days; p < 0.0001
[11] = test system: H4 lysine 5 and 12 acetylation; assay: Nascent histone H4 acetylation in hTert-HME1 cells; format: cell-based, human; details: hTert-HME1, 12 hours
[12] = target: HAT1/Rbap46 enzyme complex (Homo sapiens, UniProt O14929); assay: HAT1 acetyl-click assay
[13] = test system: HCC1806 cells; assay: Cell growth inhibition; format: cell-based, human

HAT1/Rbap46 enzyme complex, sequence (O14929 whole entry): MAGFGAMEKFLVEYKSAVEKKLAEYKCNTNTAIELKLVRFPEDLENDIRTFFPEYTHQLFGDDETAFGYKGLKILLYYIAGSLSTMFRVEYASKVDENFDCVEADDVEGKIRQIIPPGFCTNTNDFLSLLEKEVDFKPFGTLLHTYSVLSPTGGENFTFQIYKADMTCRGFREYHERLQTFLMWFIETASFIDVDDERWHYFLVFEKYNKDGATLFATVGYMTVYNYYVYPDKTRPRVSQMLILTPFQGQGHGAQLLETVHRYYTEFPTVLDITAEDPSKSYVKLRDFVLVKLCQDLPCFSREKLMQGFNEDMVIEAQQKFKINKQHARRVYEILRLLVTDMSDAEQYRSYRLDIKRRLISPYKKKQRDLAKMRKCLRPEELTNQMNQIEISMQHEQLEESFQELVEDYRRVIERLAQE
HAT1/Rbap46 enzyme complex, sequence (Q16576 whole entry partner): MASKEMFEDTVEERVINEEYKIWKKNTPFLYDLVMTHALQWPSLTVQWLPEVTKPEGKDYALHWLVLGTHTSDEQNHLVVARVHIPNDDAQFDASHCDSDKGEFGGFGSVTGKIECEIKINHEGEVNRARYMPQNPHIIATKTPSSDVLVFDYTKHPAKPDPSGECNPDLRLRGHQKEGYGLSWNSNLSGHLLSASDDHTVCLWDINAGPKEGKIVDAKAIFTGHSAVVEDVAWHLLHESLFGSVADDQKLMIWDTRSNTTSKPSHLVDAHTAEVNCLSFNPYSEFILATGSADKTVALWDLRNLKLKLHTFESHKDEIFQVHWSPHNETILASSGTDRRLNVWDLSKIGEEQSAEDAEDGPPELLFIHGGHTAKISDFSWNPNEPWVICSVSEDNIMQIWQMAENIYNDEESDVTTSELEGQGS
PCAF, sequence (Q92831 whole entry): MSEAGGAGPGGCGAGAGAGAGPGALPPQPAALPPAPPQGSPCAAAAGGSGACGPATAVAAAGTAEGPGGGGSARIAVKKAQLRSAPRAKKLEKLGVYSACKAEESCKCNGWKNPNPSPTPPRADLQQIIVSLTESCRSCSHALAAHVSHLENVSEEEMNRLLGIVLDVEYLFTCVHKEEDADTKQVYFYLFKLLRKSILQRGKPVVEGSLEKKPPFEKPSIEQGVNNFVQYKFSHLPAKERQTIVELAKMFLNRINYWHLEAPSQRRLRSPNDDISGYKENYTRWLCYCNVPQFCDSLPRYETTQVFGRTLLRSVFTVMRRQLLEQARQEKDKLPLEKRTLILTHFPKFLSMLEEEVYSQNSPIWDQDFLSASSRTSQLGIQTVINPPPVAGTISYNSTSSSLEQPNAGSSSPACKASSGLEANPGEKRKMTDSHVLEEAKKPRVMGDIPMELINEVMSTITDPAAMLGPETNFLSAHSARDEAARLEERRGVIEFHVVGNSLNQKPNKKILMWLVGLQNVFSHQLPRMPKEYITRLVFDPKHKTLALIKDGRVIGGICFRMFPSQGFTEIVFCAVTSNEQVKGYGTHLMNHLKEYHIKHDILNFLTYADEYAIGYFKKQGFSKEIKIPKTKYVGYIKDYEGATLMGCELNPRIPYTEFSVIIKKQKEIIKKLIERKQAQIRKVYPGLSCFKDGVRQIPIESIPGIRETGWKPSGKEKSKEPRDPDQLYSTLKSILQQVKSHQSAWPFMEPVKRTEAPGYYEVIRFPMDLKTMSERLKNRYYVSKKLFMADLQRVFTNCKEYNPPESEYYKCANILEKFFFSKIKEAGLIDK
KAT5, sequence (Q92993 whole entry): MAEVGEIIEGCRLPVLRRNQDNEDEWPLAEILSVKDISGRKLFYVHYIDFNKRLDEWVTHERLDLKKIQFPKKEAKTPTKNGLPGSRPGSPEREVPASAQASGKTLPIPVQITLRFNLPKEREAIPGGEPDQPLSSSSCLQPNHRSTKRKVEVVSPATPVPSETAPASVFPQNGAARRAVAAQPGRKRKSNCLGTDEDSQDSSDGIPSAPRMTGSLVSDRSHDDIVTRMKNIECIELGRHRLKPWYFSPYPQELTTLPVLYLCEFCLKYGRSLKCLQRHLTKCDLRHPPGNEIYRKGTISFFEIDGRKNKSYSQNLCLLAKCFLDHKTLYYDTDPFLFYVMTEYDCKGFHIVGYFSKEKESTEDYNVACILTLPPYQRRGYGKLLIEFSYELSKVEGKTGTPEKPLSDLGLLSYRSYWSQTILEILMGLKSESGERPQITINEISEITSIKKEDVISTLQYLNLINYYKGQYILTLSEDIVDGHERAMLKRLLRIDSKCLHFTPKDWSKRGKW
GCN5, sequence (Q92830 whole entry): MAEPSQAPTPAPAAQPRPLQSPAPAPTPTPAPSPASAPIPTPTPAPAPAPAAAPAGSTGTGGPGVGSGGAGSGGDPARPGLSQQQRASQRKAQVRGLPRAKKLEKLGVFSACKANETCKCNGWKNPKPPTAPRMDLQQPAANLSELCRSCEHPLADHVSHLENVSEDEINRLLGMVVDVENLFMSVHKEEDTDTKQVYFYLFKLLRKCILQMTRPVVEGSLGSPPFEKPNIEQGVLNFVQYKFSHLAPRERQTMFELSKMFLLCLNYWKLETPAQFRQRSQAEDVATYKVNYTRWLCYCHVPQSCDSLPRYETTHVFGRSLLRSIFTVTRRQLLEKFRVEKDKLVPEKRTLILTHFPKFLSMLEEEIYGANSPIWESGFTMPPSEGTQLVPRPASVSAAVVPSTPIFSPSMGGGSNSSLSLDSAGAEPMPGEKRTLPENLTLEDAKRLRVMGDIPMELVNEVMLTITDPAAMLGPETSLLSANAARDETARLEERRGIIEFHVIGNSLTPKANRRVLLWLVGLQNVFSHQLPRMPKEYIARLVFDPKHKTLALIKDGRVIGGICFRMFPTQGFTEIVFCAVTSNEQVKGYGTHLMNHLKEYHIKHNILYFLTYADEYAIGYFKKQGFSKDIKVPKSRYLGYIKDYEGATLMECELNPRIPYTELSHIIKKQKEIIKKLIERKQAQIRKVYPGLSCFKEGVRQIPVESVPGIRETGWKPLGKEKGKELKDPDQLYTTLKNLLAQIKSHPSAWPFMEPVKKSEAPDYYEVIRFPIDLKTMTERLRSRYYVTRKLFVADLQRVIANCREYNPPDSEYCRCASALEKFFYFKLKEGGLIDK
MYST4/KAT6b, sequence (Q8WYB5 whole entry): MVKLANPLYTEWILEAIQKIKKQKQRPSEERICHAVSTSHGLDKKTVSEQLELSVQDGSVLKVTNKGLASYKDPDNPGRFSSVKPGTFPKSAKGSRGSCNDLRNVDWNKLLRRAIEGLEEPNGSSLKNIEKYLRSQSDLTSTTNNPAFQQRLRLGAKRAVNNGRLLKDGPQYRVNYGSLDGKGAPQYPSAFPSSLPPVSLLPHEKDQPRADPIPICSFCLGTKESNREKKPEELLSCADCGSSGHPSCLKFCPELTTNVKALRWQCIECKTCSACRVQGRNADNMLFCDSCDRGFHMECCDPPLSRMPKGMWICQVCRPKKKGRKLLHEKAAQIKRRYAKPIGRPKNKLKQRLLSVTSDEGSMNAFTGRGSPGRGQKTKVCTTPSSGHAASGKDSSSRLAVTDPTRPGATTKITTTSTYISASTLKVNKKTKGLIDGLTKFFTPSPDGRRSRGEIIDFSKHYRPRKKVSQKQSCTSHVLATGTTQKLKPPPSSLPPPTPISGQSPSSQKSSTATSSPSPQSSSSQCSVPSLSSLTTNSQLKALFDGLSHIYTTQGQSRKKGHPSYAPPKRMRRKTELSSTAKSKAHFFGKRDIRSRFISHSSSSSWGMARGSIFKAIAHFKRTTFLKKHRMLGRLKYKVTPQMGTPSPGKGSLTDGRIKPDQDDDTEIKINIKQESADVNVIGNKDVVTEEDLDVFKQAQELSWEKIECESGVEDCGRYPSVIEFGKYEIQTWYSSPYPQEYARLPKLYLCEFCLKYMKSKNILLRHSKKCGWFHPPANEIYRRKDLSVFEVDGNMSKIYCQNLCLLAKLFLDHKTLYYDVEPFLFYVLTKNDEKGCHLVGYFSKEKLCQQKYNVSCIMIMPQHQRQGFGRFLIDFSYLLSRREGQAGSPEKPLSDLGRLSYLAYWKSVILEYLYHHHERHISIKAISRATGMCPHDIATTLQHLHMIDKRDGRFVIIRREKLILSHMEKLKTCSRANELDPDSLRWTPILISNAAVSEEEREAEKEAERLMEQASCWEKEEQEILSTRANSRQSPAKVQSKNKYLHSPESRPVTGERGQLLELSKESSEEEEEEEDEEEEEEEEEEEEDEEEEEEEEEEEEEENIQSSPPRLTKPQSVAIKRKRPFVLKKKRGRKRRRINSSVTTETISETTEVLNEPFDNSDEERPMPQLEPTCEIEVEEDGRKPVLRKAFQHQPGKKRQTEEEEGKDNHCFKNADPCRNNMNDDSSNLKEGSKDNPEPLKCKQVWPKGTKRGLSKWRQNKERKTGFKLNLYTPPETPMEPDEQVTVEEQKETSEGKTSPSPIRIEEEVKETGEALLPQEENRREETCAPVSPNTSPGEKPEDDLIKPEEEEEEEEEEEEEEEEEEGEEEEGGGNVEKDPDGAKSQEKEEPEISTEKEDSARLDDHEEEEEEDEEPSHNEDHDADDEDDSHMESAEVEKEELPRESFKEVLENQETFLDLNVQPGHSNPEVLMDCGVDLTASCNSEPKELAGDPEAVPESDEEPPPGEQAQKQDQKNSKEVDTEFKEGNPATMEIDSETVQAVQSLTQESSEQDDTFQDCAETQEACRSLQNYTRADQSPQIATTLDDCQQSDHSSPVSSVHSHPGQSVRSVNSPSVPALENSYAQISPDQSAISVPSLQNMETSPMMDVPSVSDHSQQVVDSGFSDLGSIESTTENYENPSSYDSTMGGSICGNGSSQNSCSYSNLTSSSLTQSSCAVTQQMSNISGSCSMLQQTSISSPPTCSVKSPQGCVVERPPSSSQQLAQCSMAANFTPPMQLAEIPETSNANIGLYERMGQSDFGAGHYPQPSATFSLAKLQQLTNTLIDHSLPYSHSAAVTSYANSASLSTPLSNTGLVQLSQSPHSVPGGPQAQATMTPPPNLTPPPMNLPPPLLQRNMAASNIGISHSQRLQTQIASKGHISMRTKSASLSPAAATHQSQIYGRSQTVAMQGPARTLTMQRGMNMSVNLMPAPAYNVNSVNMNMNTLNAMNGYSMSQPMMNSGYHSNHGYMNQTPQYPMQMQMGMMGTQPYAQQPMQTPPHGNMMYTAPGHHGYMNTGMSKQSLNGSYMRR

CCc1cc2c(cc1Cl)nc1c(=O)[nH]c(=O)nc-1n2CCOCC(C)C [JG-2016, 7-Chloro-8-ethyl-10-(2-isobutoxyethyl)benzo[g]pteridine-2,4(3H,10H)-dione]
inhibitory activity towards PCAF [1]: minimal or undetectable inhibitory activity | dose at which signs of distress were observed [2]: 500 mg/kg | H4K12Ac signal in tumors [3]: dose-dependent decrease | inhibitory activity towards GCN5 [4]: minimal or undetectable inhibitory activity | tolerated dose with minimal toxicity [5]: up to 250 mg/kg | inhibition of FAD-dependent oxidase [6]: no significant inhibitory activity | inhibitory activity towards KAT5 [7]: minimal or undetectable inhibitory activity | inhibitory activity towards MYST4/KAT6b [8]: minimal or undetectable inhibitory activity | concentration at 72 h [9]: 2050 ± 233 nM | tumor growth versus vehicle [10]: significantly impaired tumor growth | H4 lysine 5 and 12 acetylation in cells [11]: dose-dependent inhibition

3-(3-(7-Chloro-8-ethyl-2,4-dioxo-3,4-dihydrobenzo[g]pteridin-10(2H)-yl)propoxy)benzonitrile [Compound 37i]
HAT1 inhibitory activity (in words) [12]: interfered with enzyme inhibition

CC(=O)SCCNC(=O)CCNC(=O)[C@H](O)C(C)(C)COP(=O)(O)OP(=O)(O)OC[C@H]1O[C@@H](n2cnc3c(N)ncnc32)[C@H](O)[C@@H]1OP(=O)(O)O [acetyl-CoA]
preference of enzyme for native cofactor versus 4-pentynoyl-CoA [12]: > 100 fold | suppression of pentynoylated product ([12]; 1 μM acetyl-CoA, 100 μM 4-pentynoyl-CoA): completely suppressed

Cc1cc2nc3c(=O)[nH]c(=O)nc-3n(C[C@H](O)[C@H](O)[C@H](O)COP(=O)(O)OP(=O)(O)OC[C@H]3O[C@@H](n4cnc5c(N)ncnc54)[C@H](O)[C@@H]3O)c2cc1C [FAD, flavin-adenine-dinucleotide, reference compound]
HAT1 inhibitory activity (in words) [12]: no detectable inhibitory activity

Cc1cc2nc3[nH]c(=O)[nH]c(=O)c3nc2cc1C [di-methyl-alloxazine, reference compound]
HAT1 inhibitory activity (in words) [12]: no detectable inhibitory activity

Cc1cc2nc3c(=O)[nH]c(=O)nc-3n(C[C@H](O)[C@H](O)[C@H](O)COP(=O)(O)O)c2cc1C [FMN, flavin-mononucleotide, reference compound]
HAT1 inhibitory activity (in words) [12]: no detectable inhibitory activity

CCc1cc2c(cc1Cl)nc1c(=O)[nH]c(=O)nc-1n2CCOCc1ccc(C#N)cc1 [Compound 24g, 4-((2-(7-Chloro-8-ethyl-2,4-dioxo-3,4-dihydrobenzo[g]pteridin-10(2H)-yl)ethoxy)methyl)benzonitrile]
HAT1 inhibitory activity (in words) [12]: interfered with enzyme inhibition

Cc1cc2nc3c(=O)[nH]c(=O)nc-3n(C[C@H](O)[C@H](O)[C@H](O)CO)c2cc1N(C)C [roseoflavin, reference compound]
cell growth inhibitory activity (in words) [13]: strong cell growth inhibitory properties | HAT1 inhibitory activity (in words) [12]: inactive

CCc1cc2c(cc1Cl)nc1c(=O)[nH]c(=O)nc-1n2CCOCc1cccc(F)c1 [Compound 20b, 7-Chloro-8-ethyl-10-(2-((3-fluorobenzyl)oxy)ethyl)benzo[g]pteridine-2,4(3H,10H)-dione]
HAT1 inhibitory activity (in words) [12]: interfered with enzyme inhibition

From paper PMC10243098 (Journal of medicinal chemistry, 2023)
